Measured values reported in patent US20040171566A1, “Antisense modulation of p38 mitogen activated protein kinase expression” (priority 1999, published 2004).
In the oligonucleotide strings, read from the 5' end, every base follows the letter of its sugar. An asterisk marks phosphorothioate; unmarked linkages are phosphodiester. Other units and linkages are bracketed, terminal groups are in braces. A string of capitals states the bases alone. e = 2'-O-(2-methoxyethyl) (MOE); [5mC] = 5-methylcytosine; d = 2'-deoxy (DNA)

Assays:
[1] = system: rat p38α mRNA; experiment: Inhibition of rat p38α mRNA expression in A-10 cells, Northern blot; type: cell-based; settings: Rat A-10 cells, 200 nM oligonucleotide, 24 hours
Protocol: Rat p38α antisense oligonucleotides were screened in Rat A-10 cells. A-10 cells (American Type Culture Collection, Manassas, Va.) were grown in high-glucose DMEM (Life Technologies, Gaithersburg, Md.) medium containing 10% fetal calf serum (FCS). Cells were treated with oligonucleotide as described in Example 2. Oligonucleotide concentration was 200 nM. mRNA was isolated 24 hours after time zero and quantitated by Northern blot as described in Example 2.

[2] = system: mouse p38β mRNA; experiment: Inhibition of mouse p38β mRNA expression in bEND.3 cells, Northern blot; type: cell-based
Protocol: (§1) bEND.3, a mouse endothelial cell line (gift of Dr. Werner Risau; see Montesano et al., Cell, 1990, 62, 435, and Stepkowski et al., J. Immunol., 1994, 153, 5336) were grown in high-glucose DMEM (Life Technologies, Gaithersburg, Md.) medium containing 10% fetal bovine serum (FBS) and 1% Penicillin/Streptomycinin. Cells were plated at approximately 2×10^5 cells per 100 mm dish. Within 48 hours of plating, the cells were washed with phosphate-buffered saline (Life Technologies). Then, Opti-MEM7 medium containing 3 μg/mL LIPOFECTIN^7 and an appropriate amount of oligonucleotide were added to the cells. As a control, cells were treated with LIPOFECTIN^7 without oligonucleotide under the same conditions and for the same times as the oligonucleotide-treated samples.
(§2) After 4 hours at 37° C., the medium was replaced with high glucose DMEM medium containing 10% FBS and 1% Penicillin/Streptomycinin. The cells were typically allowed to recover overnight (about 18 to 24 hours) before RNA and/or protein assays were performed as described in Example 2. The p38α, p38β and G3PDH probes used were identical to those described in Example 2.
(§3) Rat p38α antisense oligonucleotides were screened in bEND.3 cells for inhibition of p38α and p38β mRNA expression. The concentration of oligonucleotide used was 100 nM. Oligonucleotides 21844 (SEQ ID NO. 47), 21845 (SEQ ID NO. 48), 21872 (SEQ ID NO. 51), 21873 (SEQ ID NO. 52), 21875 (SEQ ID NO. 54), and 21876 (SEQ ID NO.
(§4) Mouse p38β antisense sequences were screened in bEND.3 cells as described in Example 4.

[3] = system: IL-6 secretion; experiment: IL-6 secretion by IL-1 stimulated bEND.3 cells, ELISA; type: cell-based; settings: 48 hours after oligonucleotide
Protocol: p38 MAPK antisense oligonucleotides were tested for their ability to reduce IL-6 secretion. bEND.3 cells were cultured and treated as described in Example 4 except that 48 hours after oligonucleotide treatment, cells were stimulated for 6 hours with 1 ng/mL recombinant mouse IL-1 (R&D Systems, Minneapolis, Minn.). IL-6 was measured in the medium using an IL-6 ELISA kit (Endogen Inc., Woburn, Mass.).

[4] = system: mouse p38α mRNA; experiment: Inhibition of mouse p38α mRNA expression in bEND.3 cells, Northern blot; type: cell-based
Protocol: as §1, §2, §3, §4

[5] = system: human p38β mRNA; experiment: Inhibition of human p38β mRNA expression in HUVEC cells, Northern blot; type: cell-based
[6] = system: human p38β mRNA; experiment: Human p38β mRNA expression in T-24 cells
[7] = system: human p38α mRNA; experiment: Human p38α mRNA expression in T-24 cells; settings: initial screen of human p38β oligonucleotides
[8] = system: human p38α mRNA; experiment: Effect of human p38β oligonucleotides on human p38α mRNA in HUVEC cells; type: cell-based
Protocol: HUVEC cells were allowed to reach 75% confluency prior to use. The cells were washed twice with warm (37° C.) OPTI-MEM™ (Life Technologies). The cells were incubated in the presence of the appropriate culture medium, without the growth factors added, and the oligonucleotide formulated in LIPOFECTIN7 (Life Technologies), a 1:1 (w/w) liposome formulation of the cationic lipid N-[1-(2,3-dioleyloxy)propyl]-n,n,n-trimethylammonium chloride (DOTMA), and dioleoyl phosphotidylethanolamine (DOPE) in membrane filtered water. HUVEC cells were treated with 100 nM oligonucleotide in 10 μg/ml LIPOFECTIN7. Treatment was for four hours.
Total mRNA was isolated using the RNEASY7 Mini Kit (Qiagen, Valencia, Calif.; similar kits from other manufacturers may also be used), separated on a 1% agarose gel, transferred to HYBOND™-N+ membrane (Amersham Pharmacia Biotech, Piscataway, N.J.), a positively charged nylon membrane, and probed. p38 MAPK probes were made using the Prime-A-Gene7 kit (Promega Corporation, Madison, Wis.), a random primer labeling kit, using mouse p38α or p38β cDNA as a template. […] The G3PDH probe was labeled with REDIVUE™ ^32P-dCTP (Amersham Pharmacia Biotech, Piscataway, N.J.) and Strip-EZ labelling kit (Ambion, Austin, Tex.). mRNA was quantitated by a PhosphoImager (Molecular Dynamics, Sunnyvale, Calif.). […]

[9] = system: mouse p38α mRNA; experiment: Mouse p38α mRNA levels in bEND.3 cells, quantitative real-time PCR; type: cell-based; settings: mouse bEND.3 cells, at 50 nM
Summary of the method: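 Mouse bEND.3 cells, antisense oligonucleotide-treated; p38α mRNA measured by one-step real-time RT-PCR (RT 30 min at 48 °C, then 40 cycles) with a FAM/TAMRA probe. Levels normalized to GAPDH or RiboGreen total RNA, and percent inhibition derived from standard curves of untreated-control mRNA.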

[10] = system: rat p38α mRNA; experiment: Inhibition of rat p38α mRNA expression in rat cardiac myocytes, Northern blot; type: cell-based; settings: 1 μM oligonucleotide, 24 hrs
Protocol: Cells were grown as described in Zechner et al. and transfected with oligonucleotide as described in Example 2. Oligonucleotide concentration was 1 μM. mRNA was isolated 24 hrs after time zero and quantitated using Northern blotting as described in Example 2. An antisense oligonucleotide targeted to JNK-2 was used as a non-specific target control.

[11] = DOSE 100, 1 ng/mL mouse IL-1 for 6 hours
[12] = 100 nM rat p38α antisense oligonucleotide
[13] = 100 nM oligonucleotide in 10 μg/ml LIPOFECTIN, four hours, Northern blot

CoAoToCoAsTsCsAsGsGsGsTsCsGsTsGoGoToAoC (antisense e[5mC]eAeTe[5mC]eA*dT*d[5mC]*dA*dG*dG*dG*dT*d[5mC]*dG*dT*eGeGeTeAe[5mC]) [ISIS 21871]
% p38α mRNA EXPRESSION [1]: 12%
% p38β mRNA Inhibition ([2]; dose 5 nM): 4%
% p38β mRNA Inhibition ([2]; dose 25 nM): 24%
% p38β mRNA Inhibition ([2]; dose 100 nM (dose response)): 56%
% IL-6 INHIBITION ([3]; DOSE 200, 1 ng/mL mouse IL-1 for 6 hours): 23%
% p38α mRNA INHIBITION ([4]; dose 1 nM): 1%
% p38α mRNA INHIBITION ([4]; dose 5 nM): 23%
% p38α mRNA INHIBITION ([4]; dose 25 nM): 34%
% p38α mRNA INHIBITION ([4]; dose 100 nM (dose response)): 89%

ToToAoCoAsGsCsCsAsCsCsTsTsCsTsGoGoCoGoC (antisense eTeTeAe[5mC]eA*dG*d[5mC]*d[5mC]*dA*d[5mC]*d[5mC]*dT*dT*d[5mC]*dT*eGeGe[5mC]eGe[5mC]) [ISIS 100804]
% IL-6 INHIBITION [3, 11]: 57%
% p38α mRNA INHIBITION ([4]; mouse p38β antisense oligonucleotides, screened as in Example 4): 18%

CoToGoCoGsAsCsAsTsTsTsTsCsCsAsGoCoGoGoC (antisense e[5mC]eTeGe[5mC]eG*dA*d[5mC]*dA*dT*dT*dT*dT*d[5mC]*d[5mC]*dA*eGe[5mC]eGeGe[5mC]) [ISIS 21844]
% p38α mRNA EXPRESSION [1]: 75%
% p38α mRNA INHIBITION [1]: 25%
% p38β mRNA Inhibition ([2]; dose 25 nM): 8%
% p38β mRNA Inhibition ([2]; dose 100 nM (dose response)): 5%
% p38α mRNA INHIBITION ([4]; dose 25 nM): 36%
% p38α mRNA INHIBITION ([4]; dose 100 nM (dose response)): 80%

ToGoCoAoCsCsAsCsAsAsGsCsAsCsCsToGoGoAoG (antisense eTeGe[5mC]eAe[5mC]*d[5mC]*dA*d[5mC]*dA*dA*dG*d[5mC]*dA*d[5mC]*d[5mC]*eTeGeGeAeG) [ISIS 21878]
% p38α mRNA EXPRESSION [1]: 35%
% p38β mRNA Inhibition [2, 12]: 10%
% p38α mRNA INHIBITION [4, 12]: 25%

TGCGGCACCTCCCACACGGT (chimeric, phosphorothioate, further chemistry not given here) [ISIS 17893]
% mRNA EXPRESSION [5, 13]: 4%
% mRNA Inhibition [5, 13]: 96%
% mRNA EXPRESSION ([5]; dose 10 nM): 37%
% mRNA Inhibition ([5]; dose 10 nM): 63%
% mRNA EXPRESSION ([5]; dose 25 nM): 18%
% mRNA Inhibition ([5]; dose 25 nM): 82%
% mRNA EXPRESSION ([5]; dose 50 nM): 16%
% mRNA Inhibition ([5]; dose 50 nM): 84%
% mRNA EXPRESSION ([5]; dose 100 nM): 19%
% mRNA Inhibition ([5]; dose 100 nM): 81%
% p38β mRNA Expression ([6]; dose 50 nM, relative to control oligonucleotide = 100%): 28%
% p38β mRNA Expression ([6]; dose 100 nM, relative to control oligonucleotide = 100%): 27%
% p38β mRNA Expression ([6]; dose 200 nM, relative to control oligonucleotide = 100%): 16%
% p38β mRNA Expression ([6]; initial screen of human p38β oligonucleotides): 31%
% p38α mRNA EXPRESSION [7]: 61%
IC50 for p38α compared to p38β [8]: approximately 4 fold
effect on p38α mRNA expression [8]: showed an effect on p38α mRNA expression

GoAoGoCoCsTsGsTsGsCsCsTsGsGsCsAoCoToGoG (antisense eGeAeGe[5mC]e[5mC]*dT*dG*dT*dG*d[5mC]*d[5mC]*dT*dG*dG*d[5mC]*eAe[5mC]eTeGeG) [ISIS 21877]
% p38α mRNA EXPRESSION [1]: 12%
% p38β mRNA Inhibition [2, 12]: 13%
% p38α mRNA INHIBITION [4, 12]: 55%

AoGoGoToGsCsTsCsAsGsGsAsCsTsCsCoAoToToT (antisense eAeGeGeTeG*d[5mC]*dT*d[5mC]*dA*dG*dG*dA*d[5mC]*dT*d[5mC]*e[5mC]eAeTeTeT) [ISIS 21873]
% p38α mRNA EXPRESSION [1]: 19%
% p38β mRNA Inhibition ([2]; dose 1 nM): 53%
% p38β mRNA Inhibition ([2]; dose 5 nM): 31%
% p38β mRNA Inhibition ([2]; dose 25 nM): 28%
% p38β mRNA Inhibition ([2]; dose 100 nM (dose response)): 25%
% IL-6 INHIBITION [3, 11]: 49%
reduction of p38α mRNA [9]: > 70%
% p38α mRNA INHIBITION ([4]; dose 25 nM): 54%
% p38α mRNA INHIBITION ([4]; dose 100 nM (dose response)): 92%

GoGoCoCoAsGsAsGsAsCsTsGsAsAsTsGoToAoGoT (antisense eGeGe[5mC]e[5mC]eA*dG*dA*dG*dA*d[5mC]*dT*dG*dA*dA*dT*eGeTeAeGeT) [ISIS 21846]
% p38α mRNA EXPRESSION [1]: 8%
% p38α mRNA EXPRESSION [10]: 41%
% p38α mRNA INHIBITION [10]: 59%
